Target: human MRGPRD (Homo sapiens, UniProt Q8TDS7)
Experiment: MRGPRD antagonist activity, IP-One HTRF assay in CHO cells stably expressing human MRGPRD (versus 100 μM β-Alanine agonist)
Format: cell-based
Outline: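 IP-1 HTRF read-out, with IC50 from HTRF ratio curves and percent antagonism relative to maximal efficacy (mean, SEM). Antagonists and agonist were co-incubated 1 h at 37 °C plus 1 h at room temperature on overnight-plated MRGPRD-CHO cells in LiCl-containing Tris buffer, pH 8.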

human MRGPRD, sequence (Q8TDS7 whole entry): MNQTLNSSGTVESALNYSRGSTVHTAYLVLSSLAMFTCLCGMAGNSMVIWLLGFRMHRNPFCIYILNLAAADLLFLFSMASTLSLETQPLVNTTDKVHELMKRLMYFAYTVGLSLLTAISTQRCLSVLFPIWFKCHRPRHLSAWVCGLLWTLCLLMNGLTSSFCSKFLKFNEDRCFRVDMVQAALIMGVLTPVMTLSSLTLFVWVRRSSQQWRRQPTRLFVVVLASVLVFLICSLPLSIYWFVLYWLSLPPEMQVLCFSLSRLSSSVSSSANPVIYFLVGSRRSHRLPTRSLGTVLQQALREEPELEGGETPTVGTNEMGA

CCn1nc(C)c(-c2ccc(-n3nnc(C(=O)NC4(c5cccnc5)CC4)c3C3CC3)cc2)c1C [Compound 19-2, 5-cyclopropyl-1-(4-(1-ethyl-3,5-dimethyl-1H-pyrazol-4-yl)phenyl)-N-(1-(pyridin-3-yl)cyclopropyl)-1H-1,2,3-triazole-4-carboxamide]
IC50: 100 to 500 nM

Cc1cc(-c2ccc(-n3nnc(C(=O)Nc4ccncc4)c3C3CC3)cc2)on1 [Compound 7-198]
IC50: 1000 to 3000 nM

N#CCc1ccccc1-c1ccc(-n2nnc(C(=O)Nc3ccncc3)c2C2CC2)cc1 [Compound 7-154]
IC50: 500 to 1000 nM

Cc1ccc(-n2nnc(C(=O)Nc3ccncc3)c2C2CC2)c(Cl)c1 [Compound 2-7]
IC50: 1000 to 3000 nM

O=C(Nc1ccncc1)c1nnn(-c2ccc(-c3ccccc3F)cc2)c1C1CC1 [Compound 7-129]
IC50: 500 to 1000 nM

O=C(NCc1c[nH]cn1)c1nnn(-c2ccc(-c3ccccc3)cc2)c1C1CC1 [Compound 14-41]
IC50: 1000 to 3000 nM

C#Cc1ccc(-c2ccc(-n3nnc(C(=O)Nc4ccncc4)c3C3CC3)cc2)cc1 [Compound 7-150]
IC50: 500 to 1000 nM
